The numbers were not newly measured in patent publication US20230355643A1, “SOLVENT DELIVERY SYSTEM FOR TOPICAL DELIVERY OF ACTIVE AGENTS” (Timber Pharmaceuticals, Inc., priority 2019, published 2023), which cites them from elsewhere.

The conditions of the data set: log10 of organic solvent (such as octanol)/aqueous solvent partition coefficient.

With `COc1ccc2c(c1)c(CC(=O)O)c(C)n2C(=O)c1ccc(Cl)cc1` [indometocin], the logP was roughly 4.27.
As to `Cc1ccc(-c2ncc(Cl)cc2-c2ccc(S(C)(=O)=O)cc2)cn1` [etoricoxib], the logP is roughly 3.7.
Consider `Cc1onc(-c2ccccc2)c1-c1ccc(S(N)(=O)=O)cc1` [valdecoxib], for which the logP is reported as roughly 3.32.
As to `CC(C(=O)O)c1cccc(Oc2ccccc2)c1` (stereo not drawn) [fenoprofen], the log partition coefficient (logP) is reported as roughly 3.1.
As for `Clc1ccc(CO/N=C(\Cn2ccnc2)c2ccc(Cl)cc2Cl)c(Cl)c1` [oxiconazole], the lipophilicity (logP) is on record as roughly 5.84.
Take `O=C(Oc1ccccc1C(=O)O)c1ccccc1O` [salsalate]: the logP was roughly 3.44.
On to `CN(C)CCC(c1ccc(Br)cc1)c1ccccn1` (stereo not drawn) [brompheniramine], for which the logP is given as 3.4.
Take `Cc1cccc(Nc2ccccc2C(=O)O)c1C` [mefenamic acid]: the logP was roughly 5.12.
Consider `O=C(O)c1cc(-c2ccc(F)cc2F)ccc1O` [diflunisal], for which the logP is 4.44.
With `CC(C)(C)c1ccc(C(=O)CCCN2CCC(OC(c3ccccc3)c3ccccc3)CC2)cc1` [ebastine], the logP is listed as 6.96.
Take `CC(C(=O)O)c1ccc(-c2ccccc2)c(F)c1` (stereo not drawn) [flurbiprofen]: the logP was roughly 4.16.
Turning to `CN1CCC[C@@H]1CCO[C@](C)(c1ccccc1)c1ccc(Cl)cc1` [clemastine], the logP was roughly 5.2.
With `CN(C)CCC(c1ccc(Cl)cc1)c1ccccn1` (stereo not drawn) [chlorpheniramine], the lipophilicity (logP) was roughly 3.38.
`CCOC(=O)c1ccc(C#Cc2ccc3c(c2)C(C)(C)CCS3)nc1` [tazarotene, ethyl 6-[2-(4,4-dimethyl-2,3-dihydrothiochromen-6-yl)ethynyl]pyridine-3-carboxylate]: the logP was roughly 5.6.
Turning to `C=C1/C(=C\C=C2/CCC[C@]3(C)[C@@H]([C@H](C)/C=C/[C@@H](O)C4CC4)CC[C@@H]23)C[C@@H](O)C[C@@H]1O` [calcipotriol], the lipophilicity (logP) is recorded as roughly 3.84.
texaphyrin: the logP is roughly 6.76.
As for `Clc1ccc(COC(Cn2ccnc2)c2ccc(Cl)cc2Cl)c(Cl)c1` (stereo not drawn) [miconazole], the logP is roughly 6.1.
On to `Clc1ccc(COC(Cn2ccnc2)c2ccc(Cl)cc2Cl)cc1` (stereo not drawn) [econazole], for which the logP is given as roughly 5.5.
Consider ivermectin, for which the logP is listed as roughly 5.83.
Turning to `CC(C(=O)O)c1cccc(C(=O)c2ccccc2)c1` (stereo not drawn) [ketoprofen], the logP is ~3,12.
On to `CN1C(C(=O)Nc2ccccn2)=C(O)c2ccccc2S1(=O)=O` [piroxicam], for which the logP is given as roughly 3.06.

One may read the logP as the decadic logarithm of the partition coefficient of the neutral form, usually between octanol and water.
